Measurements reported in US20230265151A1, “GIP/GLP1 CO-AGONIST COMPOUNDS” (priority 2020, published 2023).
Read-outs that look alike come from different tables or passages of the source.

Columns and labels:
Type in all cases: cell-based
[1] = molecular target: hGLP-1R (Homo sapiens, UniProt P43220); assay: Functional cAMP formation (HTRF) in HEK-293 clonal cells expressing hGLP-1R, 0.1% bovine casein, without or with 1.0% human serum albumin; set-up: expressed in transfected cells; settings: for EC50: hGLP-1R EC50, nM (SEM, n), cAMP, incubated at 37° C., 0.1% bovine casein (no human serum albumin), geometric mean
Method in brief: (§1)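 Readings of the HTRF 665/620 nm ratio, which falls as cAMP rises, were converted to nM cAMP using a standard curve after 30 min peptide exposure at 37° C.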

[2] = molecular target: T1, hGIPR (Homo sapiens, UniProt P48546); assay: Functional cAMP formation (HTRF) in HEK-293 clonal cells expressing hGIPR, 0.1% bovine casein, without or with 1.0% human serum albumin
T1 construct: expressed in transfected cells
T1 sequence (P48546 22-466): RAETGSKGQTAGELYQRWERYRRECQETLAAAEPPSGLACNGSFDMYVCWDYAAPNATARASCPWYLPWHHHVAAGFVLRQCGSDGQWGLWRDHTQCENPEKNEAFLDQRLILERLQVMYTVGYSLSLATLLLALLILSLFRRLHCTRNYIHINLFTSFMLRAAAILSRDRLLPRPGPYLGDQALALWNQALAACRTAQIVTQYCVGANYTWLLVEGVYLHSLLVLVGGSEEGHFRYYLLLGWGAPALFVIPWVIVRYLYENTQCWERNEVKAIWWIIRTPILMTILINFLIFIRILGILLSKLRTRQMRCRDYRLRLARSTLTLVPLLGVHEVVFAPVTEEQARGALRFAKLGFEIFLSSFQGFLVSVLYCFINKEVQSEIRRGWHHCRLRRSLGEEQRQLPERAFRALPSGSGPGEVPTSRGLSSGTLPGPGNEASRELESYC
Method in brief: as §1

[3] = molecular target: T2, hGCGR (Homo sapiens, UniProt P47871); assay: Functional cAMP formation (HTRF) in HEK-293 clonal cells expressing hGCGR, 0.1% bovine casein, without or with 1.0% human serum albumin; settings: hGCGR EC50, nM (SEM, n), geometric mean
T2 construct: expressed in transfected cells
Method in brief: as §1

[4] = cAMP, incubated at 37° C., 0.1% bovine casein (no human serum albumin)

hGLP-1R, sequence (P43220 24-463): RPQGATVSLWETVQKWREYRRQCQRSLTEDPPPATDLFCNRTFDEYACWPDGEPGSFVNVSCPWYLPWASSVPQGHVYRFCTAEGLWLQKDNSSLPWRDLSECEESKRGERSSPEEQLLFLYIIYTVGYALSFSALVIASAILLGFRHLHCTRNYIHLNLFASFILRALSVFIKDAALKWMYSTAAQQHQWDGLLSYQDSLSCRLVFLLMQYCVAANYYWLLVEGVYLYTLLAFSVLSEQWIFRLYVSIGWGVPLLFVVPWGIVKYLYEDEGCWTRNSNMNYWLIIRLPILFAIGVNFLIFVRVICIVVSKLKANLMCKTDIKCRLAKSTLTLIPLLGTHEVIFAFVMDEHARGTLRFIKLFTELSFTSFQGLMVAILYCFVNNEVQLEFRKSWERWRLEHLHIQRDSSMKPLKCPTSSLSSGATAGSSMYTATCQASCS
T2 sequence (P47871 26-477): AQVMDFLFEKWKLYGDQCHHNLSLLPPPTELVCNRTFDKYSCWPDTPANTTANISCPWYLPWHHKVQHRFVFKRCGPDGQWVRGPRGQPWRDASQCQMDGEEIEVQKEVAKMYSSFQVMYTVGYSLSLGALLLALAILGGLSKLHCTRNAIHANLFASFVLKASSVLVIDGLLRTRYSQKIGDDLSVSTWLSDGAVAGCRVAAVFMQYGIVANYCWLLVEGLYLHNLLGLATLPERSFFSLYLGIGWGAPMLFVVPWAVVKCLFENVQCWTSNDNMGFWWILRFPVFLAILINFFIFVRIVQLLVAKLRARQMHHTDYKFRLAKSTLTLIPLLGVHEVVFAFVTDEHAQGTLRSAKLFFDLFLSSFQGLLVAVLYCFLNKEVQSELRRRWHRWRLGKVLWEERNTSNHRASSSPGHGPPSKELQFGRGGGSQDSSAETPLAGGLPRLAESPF

SMILES	Emax ([1]; HEK293, read-out: hGLP-1R Emax, % ± SEM, 0.1% bovine casein and 1.0% human serum albumin, 37° C., percent of maximal response to GLP-1(7-36)NH2)	EC50 [1]	Emax ([2]; HEK293, read-out: hGIPR Emax, % ± SEM, 0.1% bovine casein and 1.0% human serum albumin, 37° C., percent of maximal response to GIP(1-42)NH2)	EC50 ([2]; hGIPR EC50, nM (SEM, n), cAMP, incubated at 37° C., 0.1% bovine casein (no human serum albumin), geometric mean)	EC50 ([3]; 0.1% bovine casein and 1.0% human serum albumin, 37° C.)	EC50 [3, 4]	Emax ([1]; HEK293, read-out: hGLP-1R Emax, % ± SEM, percent of maximal response to GLP-1(7-36)NH2, 37° C., 0.1% bovine casein, arithmetic mean)	Emax ([2]; HEK293, read-out: hGIPR Emax, % ± SEM, percent of maximal response to GIP(1-42)NH2, 37° C., 0.1% bovine casein, arithmetic mean)
CC[C@H](C)[C@H](NC(=O)[C@H](CCCN)NC(=O)[C@H](CC(=O)O)NC(=O)[C@H](CC(C)C)NC(=O)[C@](C)(CC(C)C)NC(=O)[C@@H](NC(=O)C(C)(C)NC(=O)[C@H](Cc1ccncc1)NC(=O)[C@H](CC(=O)O)NC(=O)[C@H](CO)NC(=O)[C@@H](NC(=O)[C@](C)(Cc1ccccc1F)NC(=O)[C@@H](NC(=O)CNC(=O)[C@H](CCC(=O)O)NC(=O)C(C)(C)NC(=O)[C@@H](N)Cc1ccc(O)cc1)[C@@H](C)O)[C@@H](C)O)[C@@H](C)CC)C(=O)N[C@@H](C)C(=O)N[C@@H](CCC(N)=O)C(=O)NC(C)(C)C(=O)N[C@@H](CCCCNC(=O)COCCOCCNC(=O)COCCOCCNC(=O)CC[C@H](NC(=O)CCCCCCCCCOc1ccc(C(=O)O)cc1)C(=O)O)C(=O)N[C@@H](Cc1ccccc1)C(=O)N[C@H](C(=O)N[C@H](CCC(=O)O)C(=O)N[C@@](C)(Cc1ccc(O)cc1)C(=O)N[C@@H](CC(C)C)C(=O)N[C@H](C(=O)N[C@@H](CCCCNC(=O)COCCOCCNC(=O)COCCOCCNC(=O)CC[C@H](NC(=O)CCCCCCCCCOc1ccc(C(=O)O)cc1)C(=O)O)C(=O)NCC(=O)NCC(=O)N1CCC[C@H]1C(=O)N[C@@H](CO)C(=O)N[C@@H](CO)C(=O)NCC(=O)N[C@@H](C)C(=O)N1CCC[C@H]1C(=O)N1CCC[C@H]1C(=O)N1CCC[C@H]1C(=O)N[C@@H](CO)C(N)=O)[C@@H](C)CC)[C@@H](C)CC [Example 247]	109%	1 nM	90.2%	0.022 nM	> 9950 nM	> 9950 nM	–	–
CC[C@H](C)[C@H](NC(=O)[C@H](CC(C)C)NC(=O)[C@](C)(Cc1ccccc1)NC(=O)[C@H](CCCCNC(=O)COCCOCCNC(=O)COCCOCCNC(=O)CC[C@H](NC(=O)CCCCCCCCCCCCC(=O)O)C(=O)O)NC(=O)[C@@H](NC(=O)[C@](C)(Cc1ccccc1)NC(=O)[C@H](CCC(=O)O)NC(=O)C(C)(C)NC(=O)[C@H](CCC(N)=O)NC(=O)[C@H](C)NC(=O)[C@H](CCCCNC(=O)COCCOCCNC(=O)COCCOCCNC(=O)CC[C@H](NC(=O)CCCCCCCCCCCCC(=O)O)C(=O)O)NC(=O)[C@H](CCCN)NC(=O)[C@H](CC(=O)O)NC(=O)[C@H](CC(C)C)NC(=O)[C@](C)(CC(C)C)NC(=O)[C@@H](NC(=O)C(C)(C)NC(=O)[C@@H](NC(=O)[C@H](CC(=O)O)NC(=O)[C@H](CO)NC(=O)[C@@H](NC(=O)[C@](C)(Cc1ccccc1F)NC(=O)[C@@H](NC(=O)CNC(=O)[C@H](CCC(=O)O)NC(=O)C(C)(C)NC(=O)[C@@H](N)Cc1ccc(O)cc1)[C@@H](C)O)[C@@H](C)O)C(C)C)[C@@H](C)CC)[C@@H](C)CC)C(=O)N[C@@H](CCC(=O)O)C(=O)NCC(=O)NCC(=O)N1CCC[C@H]1C(=O)N[C@@H](CO)C(=O)N[C@@H](CO)C(=O)NCC(=O)N[C@@H](C)C(=O)N1CCC[C@H]1C(=O)N1CCC[C@H]1C(=O)N1CCC[C@H]1C(=O)N[C@@H](CO)C(N)=O [Example 123]	–	0.508 nM	–	–	–	> 9950 nM	96.3%	94.9%
